Experimental findings from patent publication US10245246B2, “β-substituted β-amino acids and analogs as chemotherapeutic agents” (QUADRIGA BIOSCIENCES, INC., priority 2014, dated 2019) are described below.

Assay [1] deals with LLCPK cells conditionally expressing hLAT1. In kind it is cell-based.
The subject of a further assay is B16 melanoma cells. Description: In vivo tumor growth suppression, B16 efficacy model. The conditions noted are these: C57BL/6 mice, s.c. B16 melanoma, dosed IP daily for 12 days; test compound 5 and 10 mg/kg, melphalan 2.5 mg/kg.

Regarding `N[C@@H](Cc1ccc(N(CCCl)CCCl)cc1)C(=O)O` [Melphalan], the “percent surviving cells in cells expressing LAT1 compared to cells not expressing LAT1 (reduction)” value in assay [1] is given as “about the same”. In the assay on B16 melanoma cells, the “Tumor Growth (% Control), 5 days post-dosing” value came to 56 % Control and the “Tumor Growth (% Control), End of dosing” value came to 33 % Control.
